Data on one compound can be found in patent publication US20190054093A1, “TREATMENT OF SARCOPENIA WITH ECDYSTEROIDS” (priority 2014, published 2019).

Assay [1] has as its system Caspase-3 expression in C2C12 myotubes. Put plainly: Caspase 3 expression in C2C12 myotubes (quantitative RT-PCR, Example 4). In kind it is cell-based, mouse. To be noted: 24 hours; extracts and turkesterone 0.002, 0.02 and 2 ppm, 20HE 0.001, 0.01 and 1 ppm. As to the method:
Experiments similar to those in example 1 have been carried out with two other plant-derived, ecdysteroid-rich extracts. […] Cells between passages 3 and 10 were seeded at a density of 10,000 cells per cm^2. Cells were grown for 48 h until they reached 80-90% confluence. […] Cells were maintained at 37° C. in a humidified 5% CO2 incubator and medium was changed every other day.
For RNA and protein extraction C2C12 myotubes were incubated with 0.002, 0.02 and 2 ppm of Rhaponticum carthamoides extract (RCE) and Cyanotis arachnoidea extract (CAE) or 0.001, 0.01 and 1 ppm of 20-hydroxyecdysone or 0.002, 0.02 and 2 ppm of Turkesterone for 24 hours. These two latter served as positive controls. RNA and protein were extracted using All Prep RNA/Protein Kit (Qiagen, Spain). RNA was stored at −80° C. and protein at −20° C. until further use. Total RNA was quantified using a fluorometric method with Quant-iT kit (Invitrogen, Spain). The cDNA was reverse-transcribed from the RNA extract using RT^2First Stand cDNA kit (Qiagen, Spain). Quantitative real-time RT-PCR for Caspase-3 and Myostatin were carried out using a MX3005P Q-PCR System (Agilent Technologies) and SYBR-Green/ROX detection. The housekeeping gene used was Actb and Mouse XpressRef Universal total RNA (Qiagen, Spain) as a positive control. […] The fold change in gene expression was calculated with ΔΔCt Method.

The target of assay [2] is T1, recombinant rat androgen receptor (Rattus norvegicus, UniProt P15207).
T1 sequence (P15207 1-902): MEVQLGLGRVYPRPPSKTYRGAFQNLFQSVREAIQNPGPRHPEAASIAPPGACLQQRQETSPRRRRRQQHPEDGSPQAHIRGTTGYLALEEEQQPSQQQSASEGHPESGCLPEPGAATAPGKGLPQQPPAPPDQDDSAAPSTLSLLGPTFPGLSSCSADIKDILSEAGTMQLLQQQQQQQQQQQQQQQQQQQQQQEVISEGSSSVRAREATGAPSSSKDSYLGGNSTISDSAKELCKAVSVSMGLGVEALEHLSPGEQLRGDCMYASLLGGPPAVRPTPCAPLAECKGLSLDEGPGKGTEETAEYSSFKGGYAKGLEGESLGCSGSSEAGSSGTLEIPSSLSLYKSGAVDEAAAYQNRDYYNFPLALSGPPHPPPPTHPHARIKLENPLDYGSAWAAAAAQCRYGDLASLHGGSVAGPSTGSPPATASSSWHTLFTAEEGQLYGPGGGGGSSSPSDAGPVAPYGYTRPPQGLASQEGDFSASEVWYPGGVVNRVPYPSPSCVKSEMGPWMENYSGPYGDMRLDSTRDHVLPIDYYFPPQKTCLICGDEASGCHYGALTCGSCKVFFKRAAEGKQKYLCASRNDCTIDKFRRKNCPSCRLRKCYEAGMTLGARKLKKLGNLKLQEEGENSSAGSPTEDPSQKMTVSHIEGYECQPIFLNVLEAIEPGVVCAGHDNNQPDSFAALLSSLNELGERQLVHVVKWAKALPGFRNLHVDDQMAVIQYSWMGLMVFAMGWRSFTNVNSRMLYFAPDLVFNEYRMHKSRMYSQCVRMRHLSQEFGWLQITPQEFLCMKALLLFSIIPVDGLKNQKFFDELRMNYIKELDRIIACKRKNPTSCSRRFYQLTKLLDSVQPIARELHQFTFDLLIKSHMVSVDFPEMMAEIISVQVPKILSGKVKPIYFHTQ
Put plainly: Androgen receptor binding assay, displacement of [3H]mibolerone. To be noted: concentrations of 1 to 100 μM. (Displacement assays read how much labelled ligand stays bound in the presence of the test substance.)
Description: Briefly, recombinant rat androgen receptor was combined with [3H]mibolerone in a buffer of 50 mM Tris-HCl, pH 7.5, 0.8 M NaCl, 10% glycerol, 2 mM dithiothreitol, 1 mg/mlL BSA, and 2% ethanol. DPM of the incubation buffer was measured to quantify displacement of the labeled ligand.

For assay [3], the system named is C2C12 myotubes. It is filed as cell-based, mouse. Particulars: dose response experiment; 16 h. As to the method: After cells reached 80-90% confluence (72 hours post-seeding) the media was replaced with differentiation media (DM): DMEM containing 2% horse serum (PAA; GE HealthCare), 10 mM Hepes (Lonza), 6 mM glutamine, 100 U/mL penicilin and 100 μgr/mL streptomycin (Biochrom). Media was replaced every 2 days, and after 10 days the myoblast has fused into multinucleated myotubes showing a fusion index of 70-80%.
Before cell treatment, a 2000× Botanicals Extracts Stocks solutions were prepared in Biological grade DMSO (Sigma) or Ultrapure H2O (milliQ; Millipore), sonicated for 30 min and Filtered using a 0.22 μm pore size syringe filter membrane (Millipore). […]
Protein synthesis was determined by measuring the incorporation of the tritiated L-Leucine (^3H-Leu) into C2C12 cellular proteins. […] Radioactivity was measured using a liquid scintillation counter (Tri-Carb, Perkin Elmer) and expressed as decay per minute (DPM). Total protein was quantified using Bradford method-based assay (microassay procedure) following the manufacturer's instructions (Biorad protein assay, BioRad Laboratories). Protein synthesis was calculated from the trichloroacetic acid-insoluble radioactivity incorporated per microgram of total protein. Results were expressed as relative increase in L-[3H]-Leucine compared with 100% of not treated Control. […]

Assay [4] deals with Primary human skeletal muscle cells. Kind of assay: Protein synthesis by radio-labeled leucine incorporation in human skeletal myotubes (Example 3). To be noted: 100 nM, 24 h of treatment.
Description: Primary human skeletal muscle cells (a gift from Dr. William Cefalu of the Pennington Biomedical Research Center, Baton Rouge, La.) were seeded at a density of 10^5 cells/cm2 onto 24-well tissue culture plates. The cells were grown in DMEM supplemented with 10% FBS and a SingleQuot Kit (Lonza, Portsmouth, N.H.) containing epidermal growth factor, insulin, bovine serum albumin (BSA), fetuin, dexamethasone, and gentamicin/amphotericin-B. Cells were grown for 96 h in 5% CO2 at 37° C. until they reached 80% confluency, and the medium was replaced with differentiation medium (DMEM with 2% horse serum). After 18 days, myoblasts fused into multinucleated myotubes. […] Additionally, extracts of spinach or Ajuga turkestanica were also added. Radio-labeled leucine was used to assess any changes in protein synthesis. Decays per minute (DPM) were measured in a liquid scintillation counter (LS 6500, Beckman Coulter). Total protein was quantified using the bicinchoninic acid (BCA) method following the manufacturer's instructions (Pierce, Rockford, Ill.). The data were expressed as DPM per milligram of total protein.
The test system of assay [5] is C2C12 myotubes. Kind of assay: Protein synthesis by radio-labeled leucine incorporation in C2C12 myotubes (Example 3). In kind it is cell-based, mouse.
The conditions of assay [6]: rats fed 5 mg/kg BW for 7 days; 20HE derived from Rhaponticum carthamoides; cited from earlier work.

For the compound `CC(C)(O)CC[C@@H](O)[C@](C)(O)[C@H]1CC[C@@]2(O)C3=CC(=O)[C@@H]4C[C@@H](O)[C@@H](O)C[C@]4(C)[C@H]3CC[C@]12C` [Example 20HE, 20-hydroxyecdysone], the “regulation of Caspase 3 expression” value in assay [1] was “significant effect in down regulation”. The “inhibition of [3H]mibolerone binding” value in assay [2] is “did not show any significant inhibition”. Besides, the “protein synthesis versus the control group” value in assay [3] is recorded as “statistically significant increase”. Moreover, the “protein synthesis, % of control” value in assay [4] is listed as 120 % of control; in assay [5] (40 nM), 110 % of control. For the same compound, the “protein synthesis, % of control (peak effect)” value in assay [5] (0.1 μM) is reported as 120 % of control. In assay [6], the “weight of liver, heart, kidneys and the tibialis anterior muscle” value is on record as “increases”.
